SMILES strings stand for the structures.

For experiment [1], the target named is T1, Prostaglandin G/H synthase 2 (Homo sapiens, UniProt P35354).
T1 sequence (P35354 whole entry): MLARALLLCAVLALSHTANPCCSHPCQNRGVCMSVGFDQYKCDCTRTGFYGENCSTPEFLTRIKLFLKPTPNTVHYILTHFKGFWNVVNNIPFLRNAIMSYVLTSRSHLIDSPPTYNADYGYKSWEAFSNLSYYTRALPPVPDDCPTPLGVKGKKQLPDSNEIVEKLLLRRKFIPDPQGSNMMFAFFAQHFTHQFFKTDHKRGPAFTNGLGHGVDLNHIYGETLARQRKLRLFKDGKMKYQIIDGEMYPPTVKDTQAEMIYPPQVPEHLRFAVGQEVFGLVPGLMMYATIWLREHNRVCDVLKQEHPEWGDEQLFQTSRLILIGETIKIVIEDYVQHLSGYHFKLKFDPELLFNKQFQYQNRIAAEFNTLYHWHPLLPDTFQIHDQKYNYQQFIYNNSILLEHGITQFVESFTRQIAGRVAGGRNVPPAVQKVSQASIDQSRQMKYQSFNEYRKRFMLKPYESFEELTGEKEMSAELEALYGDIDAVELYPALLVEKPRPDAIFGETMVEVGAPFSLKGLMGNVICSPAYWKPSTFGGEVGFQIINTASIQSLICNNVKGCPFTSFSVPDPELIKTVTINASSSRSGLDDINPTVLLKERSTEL
The experiment in a line: Inhibition of COX-2 (unknown origin).

Experiment [2] concerns the target Prostaglandin G/H synthase 1 (Homo sapiens, UniProt P23219). As to the kind of experiment: Inhibition of COX-1 (unknown origin).

Sequence of Prostaglandin G/H synthase 1 (P23219 whole entry): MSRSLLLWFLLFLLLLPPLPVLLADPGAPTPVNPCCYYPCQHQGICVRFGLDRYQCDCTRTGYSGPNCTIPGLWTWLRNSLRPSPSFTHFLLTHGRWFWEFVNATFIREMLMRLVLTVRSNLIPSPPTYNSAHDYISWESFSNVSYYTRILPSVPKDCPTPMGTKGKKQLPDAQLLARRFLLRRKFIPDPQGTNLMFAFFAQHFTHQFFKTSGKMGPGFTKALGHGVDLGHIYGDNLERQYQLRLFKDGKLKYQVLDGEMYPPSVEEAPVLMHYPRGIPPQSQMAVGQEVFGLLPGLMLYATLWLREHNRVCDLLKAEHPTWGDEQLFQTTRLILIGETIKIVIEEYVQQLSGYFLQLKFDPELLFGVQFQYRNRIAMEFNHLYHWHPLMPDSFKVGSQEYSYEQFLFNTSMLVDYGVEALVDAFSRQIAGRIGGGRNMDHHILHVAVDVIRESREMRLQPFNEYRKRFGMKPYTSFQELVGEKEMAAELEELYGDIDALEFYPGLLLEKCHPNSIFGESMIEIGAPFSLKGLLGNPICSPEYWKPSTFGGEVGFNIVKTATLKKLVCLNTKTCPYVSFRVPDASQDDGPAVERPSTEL

By IC50 is commonly meant the concentration that gives 50% inhibition. Higher therefore signals weaker potency. As for `CC1Cn2c(S)nc3cc(Cl)cc(c32)CN1CC1CCC1` (stereo unspecified), the IC50 in experiment [1] was 0.1 µM; in experiment [2], 9.56 µM.
The matching figures for `CCC(=CCN1Cc2cc(Cl)cc3nc(S)n(c23)CC1C)CC` (stereo unspecified): 0.1 µM and 9.56 µM.
Consider `CCC(=CCN1Cc2cc(C)cc3nc(O)n(c23)C[C@@H]1C)CC`, for which the IC50 worked out at 0.1 µM in experiment [1] and 9.56 µM in experiment [2].

These data come from BindingDB's records for PubMed 32898763 (n/a, 2020).
